The text below walks through data of US20240101538A1, “PROTEIN-PROTEIN INTERACTION MODULATORS OF AURORA KINASE A AND THEIR USE IN THE PREVENTION AND/OR TREATMENT OF CANCER” (EBERHARD KARLS UNIVERSITÄT TÜBINGEN, priority 2020, published 2024).

The target of one test is MYC-AURKA interaction (Mus musculus (Mouse), UniProt P97477). Put plainly: Proximity ligation assay (PLA) for MYC and AURKA in NMP53^−/− cells. Type of test: cell-based, murine. Particulars: 2 h after treatment. How it is done: To examine whether this MYC degradation is associated with MYC-AURKA PPI disruption, the inventors performed proximity ligation assays (PLA) in NMP53^−/− cells. For Proximity Ligation Assay (PLA), 50 000 cells were seeded on 12 mm glass slides placed in 6 well plates. On the next day, the cells were treated with the indicated compounds or the corresponding DMSO concentration for 2 h (compound 2c [N-(5-((4-(1H-pyrazole-4-yl)benzyl)amino)-2-fluorophenyl)-3-(furan-2-yl)propanamide] and compound 3a [N-(2-fluoro-5-((4-(1-methyl-1H-pyrazole-4-yl)benzyl)amino)phenyl)-3-(furan-2-yl)propanamide]) or 24 h (alisertib) and fixed for 10 min in 100% MeOH at −20° C. The glass slides were removed from the 6 well plates and the cells permeabilized with TBS+0.3% Triton X-100 for 5 min. After washing with PBS and blocking with 5% BSA in TBS+0.05% Tween for 30 min, the slides were incubated with MYC (Abeam ab32072, 1:200) and AURKA (Abcam ab13824, 1:200) specific antibodies in 1% BSA in TBS+0.05% Tween for 120 min at RT and washed 3 times with PBS for 5 min, wherein the MYC/TPX2 and AURKA specific antibodies are derived from a different species. After a 20 min pre-incubation of two PLA probes, directed against either species of the MYC/TPX2 and AURKA specific antibodies, at RT (DUO92001 and DUO92005 Sigma Aldrich, diluted 1:10 in 1% BSA in TBS+0.05% Tween), the slides were incubated with the probes for 60 min at 37° C. in a humidified chamber. The slides were washed 3 times with 1× wash buffer A (Sigma Aldrich DUO82049) for 5 min and incubated with the ligase solution (ligase diluted 1:40 in 5× ligase buffer and ddH2O, Sigma Aldrich DUO92008) for 60 min at 37° C. in a humidified chamber. […] The foci per cell were counted in a way that the cytoplasmic foci are counted to the cell with the closest nucleus (DAPI). Significance was calculated with the GraphPad Prism 8.4.0 software (GraphPad Software, La Jolla, CA) by using the nonparametric Mann Whitney test.

Another test deals with AURKA (Homo sapiens (Human), UniProt O14965). Put plainly: Binding to AURKA.
In the next test the test system is NMP53^−/− cells. In words: Immunofluorescence staining (α-tubulin, DAPI) of normal and abnormal spindles. Type of test: cell-based, murine. As to conditions: different treatment times. How it is done:
The AURKA compounds of this invention trigger the formation of abnormal (multipolar and monopolar) spindles a few minutes after application. A. Representative images of immunofluorescence stainings with antibodies against α-tubulin (light grey) and DAPI (surrounded by a dashed white line) of a tumor cell line (NMP53^−/− cells) treated for 24 hours with compound 3a [N-(2-fluoro-5-((4-(1-methyl-1H-pyrazole-4-yl)benzyl)amino)phenyl)-3-(furan-2-yl)-propanamide] or DMSO as a control. B. Quantification of normal and abnormal spindles of immunofluorescence staining with antibodies against α-tubulin and DAPI of a tumor cell line (NMP53^−/− cells) after different treatment times with compound 3a according to this invention or DMSO as a control.
The AURKA compounds of this invention trigger the formation of abnormal (e.g. multipolar and/or monopolar) spindles in tumor cell lines (NMP53^−/− cells) (FIG. 8).

MYC-AURKA interaction, sequence (P97477 whole entry): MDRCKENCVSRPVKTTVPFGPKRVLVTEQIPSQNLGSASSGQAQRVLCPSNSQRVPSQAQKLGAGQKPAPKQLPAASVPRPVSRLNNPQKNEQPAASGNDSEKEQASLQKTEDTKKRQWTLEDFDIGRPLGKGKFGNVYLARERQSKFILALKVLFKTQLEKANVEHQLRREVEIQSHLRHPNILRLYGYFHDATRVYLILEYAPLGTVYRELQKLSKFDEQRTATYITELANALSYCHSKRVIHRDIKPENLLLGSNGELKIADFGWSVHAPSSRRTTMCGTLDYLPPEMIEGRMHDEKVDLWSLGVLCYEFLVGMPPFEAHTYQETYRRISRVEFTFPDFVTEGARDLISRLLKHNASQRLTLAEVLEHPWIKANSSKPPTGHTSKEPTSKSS
AURKA, sequence (O14965 whole entry): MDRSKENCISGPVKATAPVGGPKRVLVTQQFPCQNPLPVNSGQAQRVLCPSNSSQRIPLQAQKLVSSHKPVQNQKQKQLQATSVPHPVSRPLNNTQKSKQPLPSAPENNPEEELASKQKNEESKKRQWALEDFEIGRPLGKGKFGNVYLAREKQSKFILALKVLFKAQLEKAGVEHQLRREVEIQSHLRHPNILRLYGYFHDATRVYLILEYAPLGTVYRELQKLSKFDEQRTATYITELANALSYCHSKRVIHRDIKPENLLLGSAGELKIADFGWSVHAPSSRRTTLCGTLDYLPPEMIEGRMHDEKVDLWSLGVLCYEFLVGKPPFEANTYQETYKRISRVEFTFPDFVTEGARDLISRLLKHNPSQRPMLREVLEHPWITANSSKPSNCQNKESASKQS

With `O=C(CCc1ccco1)Nc1cc(NCc2ccc(-c3cn[nH]c3)cc2)ccc1F` [Compound 2c, N-(5-((4-(1H-pyrazole-4-yl)benzyl)amino)-2-fluorophenyl)-3-(furan-2-yl)propanamide], at MYC-AURKA interaction, the “reduction of the MYC-AURKA interaction compared to DMSO” value is reported as 66.7%. For the same compound, at AURKA, the “binding to AURKA” value is “strong binding”.
Turning to `Cn1cc(-c2ccc(CNc3ccc(F)c(NC(=O)CCc4ccco4)c3)cc2)cn1` [Compound 3a, N-(2-fluoro-5-((4-(1-methyl-1H-pyrazole-4-yl)benzyl)amino)phenyl)-3-(furan-2-yl)propanamide], the “formation of abnormal spindles” value with NMP53^−/− cells is on record as “induce the formation of abnormal spindles within a few minutes”. Further, on MYC-AURKA interaction, the “reduction of the MYC-AURKA interaction compared to DMSO” value is reported as 50%.
